In one test the target is T1, opioid receptor (Mus musculus, UniProt P42866).
T1 construct: Five CF-1 male mice (Charles River, Portage, Mich.); from tissue; host or cells: living CF-1 male mice (in vivo test; endogenous receptor)
Put plainly: mouse writhing analgesis test: block of morphine-induced analgesia. The test is classed as in vivo, CF-1 male mice. Set-up: unit not given here. The conditions noted are these: dose of antagonist that reduced the inhibition of writhing produced by 1.25 mg/kg morphine sulfate to 50%; subcutaneous, 20 min before acetic acid. In a few lines:
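Male CF-1 mice (~20 g, fasted overnight, n=5) dosed subcutaneously 20 min before i.p. 0.6% acetic acid; writhes counted for 10 min starting 5 min post-injection. Antagonism measured as blockade of morphine-induced inhibition of writhing, percent versus vehicle controls; ED50 defined as 50% writhing inhibition.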

Test [1] deals with T2, peripheral opioid receptors (Mus musculus, UniProt P42866).
T2 construct: Mice maintained (6 mice/cage) on 0.01M saccharin water with 1 g/1 morphine sulfate; from tissue; host or cells: living morphine-maintained mice (in vivo test; endogenous receptor)
T2 sequence (P42866 whole entry): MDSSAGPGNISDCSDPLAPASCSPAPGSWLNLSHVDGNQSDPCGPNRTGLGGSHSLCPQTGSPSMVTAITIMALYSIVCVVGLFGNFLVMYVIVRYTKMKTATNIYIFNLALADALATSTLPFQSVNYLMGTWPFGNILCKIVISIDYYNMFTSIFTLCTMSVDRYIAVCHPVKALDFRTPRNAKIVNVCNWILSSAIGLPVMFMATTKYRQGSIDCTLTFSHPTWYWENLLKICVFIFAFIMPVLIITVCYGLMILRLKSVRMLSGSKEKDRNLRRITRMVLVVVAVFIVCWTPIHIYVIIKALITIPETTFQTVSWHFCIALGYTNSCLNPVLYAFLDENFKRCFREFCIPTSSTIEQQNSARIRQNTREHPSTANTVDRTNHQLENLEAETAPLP
Nature of the test: precipitated diarrhea in morphine-maintained mice (peripheral opioid activity) and comparison with the writhing test. The test is classed as in vivo. Particulars: for Ratio (AD50 mouse writhing test / ED50 mouse diarrhea test): higher ratio = greater relative antagonism of peripheral opioid receptors; for ED50: mouse, 0.5 h, morphine-maintained mice, antagonist subcutaneous or oral, 30 min observation. In a few lines:
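Morphine-dependent mice (1 g/l morphine sulfate in drinking water ≥10 days, withdrawn 45 min before dosing) received antagonist subcutaneously or orally, 5 mice/dose. Diarrhea (and jumping) were scored over 30 min and doses lowered to find the diarrhea threshold. Peripheral selectivity was taken as writhing AD50 divided by diarrhea ED50.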
On the technique in general: In writhing tests, fewer writhes than in controls are read as antinociception.

Another test deals with T3, mu receptor (Rattus norvegicus, UniProt P33535).
T3 construct: rat whole brain minus cerebellum for mu was homogenized; from tissue; host or cells: brain of male Sprague Dawley rats, whole brain minus cerebellum, homogenate fraction
T3 sequence (P33535 whole entry): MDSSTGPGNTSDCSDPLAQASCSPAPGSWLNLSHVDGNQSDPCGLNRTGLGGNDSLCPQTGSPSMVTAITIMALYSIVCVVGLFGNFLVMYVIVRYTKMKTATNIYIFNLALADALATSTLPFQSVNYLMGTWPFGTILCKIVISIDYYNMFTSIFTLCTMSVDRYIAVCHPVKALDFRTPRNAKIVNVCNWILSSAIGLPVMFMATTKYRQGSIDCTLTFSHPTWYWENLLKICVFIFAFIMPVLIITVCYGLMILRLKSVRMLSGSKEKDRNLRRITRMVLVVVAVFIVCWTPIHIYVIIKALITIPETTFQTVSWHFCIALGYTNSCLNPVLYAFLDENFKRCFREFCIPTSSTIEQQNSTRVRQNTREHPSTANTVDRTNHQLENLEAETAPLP
Put plainly: opioid receptor binding assay, [3H] NAL (tritiated naloxone), mu receptor. Set-up: species or system rat (Male Sprague Dawley), brain minus cerebellum. In a few lines:
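Displacement of [3H]naloxone was measured on rat whole brain minus cerebellum membranes, preincubated 20 min and incubated 20 min at 37° C, with filtration separating bound ligand. Ki was derived from IC50 and ligand KD. Percent displacement was also recorded at 10 nM and 100 nM test compound.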

Setting [2] is: 20 min, read-out: % displacement at 10 nM, 10 nM test compound, [3H] naloxone 0.5 nM.
The mark [3] stands for this setting: 20 min, read-out: % displacement at 100 nM.
[4] abbreviates: 20 min, read-out: % displacement at 100 nM, 100 nM test compound, [3H] naloxone 0.5 nM.

Counter-ions that a name gives are not always drawn. Like-named read-outs stand apart in the source and are kept apart here.

T1 sequence (P42866 whole entry): as the sequence (P42866 whole entry) above

`CCOC(=O)CCCNC(=O)C(CC1CCCCC1)CN1CC[C@@](C)(c2cccc(O)c2)[C@@H](C)C1` (some centres unmarked) [Example 39, 4-[[3-[3,4-dimethyl-4-(3-hydroxyphenyl)-1-piperidinyl]-2-(cyclohexhymethyl)-1-oxopropyl]-amino]butanoic acid ethyl ester monohydrochloride] displayed an AD50 at opioid receptor of 11.9. In addition, in test [1], the “Ratio (AD50 mouse writhing test / ED50 mouse diarrhea test)” value is given as 18 and the ED50 was found to be 0.66 mg/kg. At mu receptor, this compound gave a Ki of 3.75 nM. For the same compound, the inhibition at 0.01 µM at mu receptor (setting [2]) was 91%. In addition, at mu receptor (setting [3]), the inhibition at 0.1 µM is 98%.
At opioid receptor, `C[C@H]1CN(CC(CC2CCCCC2)C(=O)NCCCC(N)=O)CC[C@@]1(C)c1cccc(O)c1` (some centres unmarked) [Example 40, 4-[[1-oxo-2-(cyclohexylmethyl)-3-[4-(3-hydroxyphenyl)-3,4-dimethyl-1-piperidinyl]propyl]-amino]butanamide hydrochloride] yielded an AD50 of 4.5. For the same compound, in test [1], the “Ratio (AD50 mouse writhing test / ED50 mouse diarrhea test)” value turned out to be 3.5 and the 50% effect level (ED50) was put at a dose of 1.3 mg/kg. For the same compound, the affinity at mu receptor, expressed as Ki, was 0.75 nM. Moreover, at mu receptor (setting [2]), the inhibition at 0.01 µM was determined as 95%. For the same compound, the inhibition at 0.1 µM at mu receptor (setting [4]) is 100%.
With `CNC(=O)CCCNC(=O)C(CC1CCCCC1)CN1CC[C@@](C)(c2cccc(O)c2)[C@@H](C)C1` (some centres unmarked) [Example 41, N-[4-(methylamino)-4-oxobutyl]-3-[4-(3-hydroxyphenyl)-3,4-dimethyl-1-piperidinyl]-2-cyclohexylmethylpropanamide monohydrochloride], the AD50 on opioid receptor amounted to 4.5. Also, in test [1], the “Ratio (AD50 mouse writhing test / ED50 mouse diarrhea test)” value is 26 and it took a dose of 0.17 mg/kg to reach the 50% effect level (ED50). At mu receptor, this compound showed a Ki of 0.39 nM. On mu receptor (setting [2]), the inhibition at 0.01 µM came out at 100%. Also, on mu receptor (setting [4]), the inhibition at 0.1 µM amounted to 100%.
In turn, `CCNC(=O)CCCNC(=O)C(CC1CCCCC1)CN1CC[C@@](C)(c2cccc(O)c2)[C@@H](C)C1` (some centres unmarked) [Example 42, N-[4-(ethylamino)-4-oxobutyl]-3-[4-(3--hydroxyphenyl)-3,4-dimethyl-1-piperidinyl[-2-cyclohexyl-methylpropanamide monohydrate hydrochloride] came in with an AD50 on opioid receptor of 2.1. Moreover, in test [1], the “Ratio (AD50 mouse writhing test / ED50 mouse diarrhea test)” value came out at 8 and the median effective dose (ED50) is 0.26 mg/kg. The compound also showed a Ki on mu receptor of 0.57 nM. Moreover, on mu receptor (setting [2]), the inhibition at 0.01 µM was found to be 100%. Further, on mu receptor (setting [3]), the inhibition at 0.1 µM was 97%.
`CCOC(=O)CNC(=O)C(Cc1ccccc1)CN1CC[C@@](C)(c2cccc(O)c2)[C@@H](C)C1` (some centres unmarked) [Example 43, 2-[3-[4-(3-hydroxyphenyl)-3,4-dimethyl-1-piperidinyl]-1-oxo-2-(phenylmethyl)propyl]-amino]acetic acid ethyl ester hydrochloride] showed an AD50 at opioid receptor of 1.9. Further, in test [1], the “Ratio (AD50 mouse writhing test / ED50 mouse diarrhea test)” value was determined as 146 and the ED50 was found to be 0.013 mg/kg. This compound gave a Ki at mu receptor of 0.64 nM. Further, the inhibition at 0.01 µM on mu receptor (setting [2]) is 98%. Moreover, the inhibition at 0.1 µM on mu receptor (setting [4]) is 99%.
`C[C@H]1CN(CC(Cc2ccccc2)C(=O)NCC(=O)O)CC[C@@]1(C)c1cccc(O)c1` (some centres unmarked) [Example 44, 2-[[3-[4-(3-hydroxyphenyl)-3,4-dimethyl-1-piperidinyl]-1-oxo-2-(phenylmethyl)propyl]-amino]acetic acid monohydrate]: the AD50 at opioid receptor is reported as over 40. In test [1], the “Ratio (AD50 mouse writhing test / ED50 mouse diarrhea test)” value was over 266 and the 50% effect level (ED50) was put at a dose of 0.15 mg/kg. The inhibition at 0.01 µM at mu receptor (20 min, read-out: % displacement at 10 nM) came to 87%. In addition, the inhibition at 0.1 µM at mu receptor (setting [3]) was 94%. Moreover, on mu receptor ([3H] naloxone 0.5 nM, pH 7.4, 37° C., 20 min, read-out: Ki), the inhibition constant Ki was 0.89 nM.
Regarding `CCNC(=O)CNC(=O)C(Cc1ccccc1)CN1CC[C@@](C)(c2cccc(O)c2)[C@@H](C)C1` (some centres unmarked) [Example 45, N-ethyl-2-[[2-(phenylmethyl-)-1-oxo-3-[4-(3-hydroxyphenyl)-3,4-dimethyl-1-piperidinyl]propyl]-amino]ethanamide], on opioid receptor, the AD50 is recorded as 2.6. Further, in test [1], the “Ratio (AD50 mouse writhing test / ED50 mouse diarrhea test)” value came to 11 and the ED50 is 0.24 mg/kg. On mu receptor, this compound displayed an inhibition constant (Ki) of 1.28 nM. Moreover, the inhibition at 0.01 µM on mu receptor (setting [2]) came to 93%. The inhibition at 0.1 µM at mu receptor (setting [3]) was 98%.
Regarding `C[C@H]1CN(CC(Cc2ccccc2)C(=O)NCC(N)=O)CC[C@@]1(C)c1cccc(O)c1` (some centres unmarked) [Example 46, N-(2-amino-2-oxoethyl)-3-[3,4-dimethyl-4-(3-hydroxyphenyl)-1-piperidinyl]-2-phenylmethyl propanamide monohydrochloride monohydrate], the AD50 on opioid receptor is 40. In test [1], the “Ratio (AD50 mouse writhing test / ED50 mouse diarrhea test)” value stood at 571 and the 50% effective dose (ED50) stood at 0.07 mg/kg. The same compound gave a Ki on mu receptor of 0.31 nM. Further, the inhibition at 0.01 µM on mu receptor (setting [2]) amounted to 99%. For the same compound, the inhibition at 0.1 µM on mu receptor (setting [4]) is 95%.
The compound `C[C@H]1CN(CC(Cc2ccccc2)C(=O)NCC(=O)N(C)C)CC[C@@]1(C)c1cccc(O)c1` (some centres unmarked) [Example 47, N,N-dimethyl-2-[[3-4-(3-hydroxyphenyl)-3,4-dimethyl-1-piperidinyl]-2-(phenylmethyl)-1-oxypropyl]amino]acetamide monohydrochloride monohydrate] showed an AD50 on opioid receptor of 40. Further, in test [1], the “Ratio (AD50 mouse writhing test / ED50 mouse diarrhea test)” value turned out to be 267 and the 50% effective dose (ED50) was 0.15 mg/kg. This compound also came in with a Ki on mu receptor of 2.11 nM. On mu receptor (setting [2]), the inhibition at 0.01 µM was found to be 89%. On mu receptor (setting [4]), the inhibition at 0.1 µM is 95%.
Compound `CC(C)NC(=O)CNC(=O)C(Cc1ccccc1)CN1CC[C@@](C)(c2cccc(O)c2)[C@@H](C)C1` (some centres unmarked) [Example 48, N-(1-methylethyl)-2-[[3-[4-(3-hydroxyphenyl)-3,4-dimethyl-1-piperidinyl]-2-(phenylmethyl)-1-oxopropyl]amino]acetamide hydrochloride monohydrate] showed an AD50 on opioid receptor of over 40. Further, in test [1], the “Ratio (AD50 mouse writhing test / ED50 mouse diarrhea test)” value is over 400 and it took a dose of 0.1 mg/kg to reach the 50% effect level (ED50). Further, on mu receptor, the affinity corresponds to a Ki of 1.82 nM. Besides, the inhibition at 0.01 µM on mu receptor (setting [2]) is 96%. Also, at mu receptor (setting [4]), the inhibition at 0.1 µM came to 100%.
On to `CCCNC(=O)CNC(=O)C(Cc1ccccc1)CN1CC[C@@](C)(c2cccc(O)c2)[C@@H](C)C1` (some centres unmarked) [Example 49, N-2-propylamino-2-oxoethyl]-3-[4-(3-hydroxyphenyl)-3,4-dimethyl-1-piperidinyl]-2-phenylmethyl propanamide monohydrate hydrochloride], for which the AD50 at opioid receptor was determined as 6.08. Further, in test [1], the “Ratio (AD50 mouse writhing test / ED50 mouse diarrhea test)” value was found to be 61 and the 50% effective dose (ED50) was 0.1 mg/kg. The compound further displayed an inhibition constant Ki at mu receptor of 0.54 nM. The inhibition at 0.01 µM at mu receptor (setting [2]) came to 98%. The inhibition at 0.1 µM at mu receptor (setting [4]) came to 100%.
Turning to `CC(C)CNC(=O)CNC(=O)C(Cc1ccccc1)CN1CC[C@@](C)(c2cccc(O)c2)[C@@H](C)C1` (some centres unmarked) [Example 50, N-2-[(2-methylpropyl)amino]-2-oxo-ethyl]-3-[3,4-dimethyl-4-(3-hydroxyphenyl)-1-piperidinyl-2-phenylmethyl propanamide monohydrate hydrochloride], the AD50 at opioid receptor was 14.3. In addition, in test [1], the “Ratio (AD50 mouse writhing test / ED50 mouse diarrhea test)” value was found to be 26 and the median effective dose (ED50) is 0.54 mg/kg. The affinity on mu receptor, expressed as Ki, was 1.2 nM. For the same compound, on mu receptor (setting [2]), the inhibition at 0.01 µM came to 94%. The inhibition at 0.1 µM on mu receptor (setting [4]) is 100%.
As to `CC(C)OC(=O)CNC(=O)C(Cc1ccccc1)CN1CC[C@@](C)(c2cccc(O)c2)[C@@H](C)C1` (some centres unmarked) [Example 51, 2-[[2-(phenylmethyl)-3-[4-(3-hydroxyphenyl)-3,4-dimethyl-1-piperidinyl]-1-oxopropyl]-amino]ethanoic acid 2-propyl ester monohydrochloride], the AD50 on opioid receptor is reported as 3.8. For the same compound, in test [1], the “Ratio (AD50 mouse writhing test / ED50 mouse diarrhea test)” value is listed as 25 and the 50% effect level (ED50) was put at a dose of 0.15 mg/kg. For the same compound, on mu receptor, the inhibitory constant (Ki) was determined as 5.43 nM. Further, the inhibition at 0.01 µM at mu receptor (setting [2]) came to 85%. In addition, the inhibition at 0.1 µM at mu receptor (setting [4]) was found to be 97%.
In the case of `C[C@H]1CN(CC(Cc2ccccc2)C(=O)NCC(=O)OCC2CCCCC2)CC[C@@]1(C)c1cccc(O)c1` (some centres unmarked) [Example 53, 2-[[2-(phenylmethyl)-1-oxo-3-[4-(3-hydroxyphenyl)-3,%-dimethyl-1-piperidinyl]propylamino]-ethanoic acid cyclohexylmethyl estermonohydrochloride], the AD50 at opioid receptor is over 40. In test [1], the “Ratio (AD50 mouse writhing test / ED50 mouse diarrhea test)” value was over 23 and the ED50 turned out to be 1.7 mg/kg. In addition, at mu receptor (20 min, 10 nM test compound, [3H] naloxone 0.5 nM, read-out: % displacement at 10 nM), the inhibition at 0.01 µM came out at 2%. Further, the inhibition at 0.1 µM at mu receptor (20 min, 100 nM test compound, [3H] naloxone 0.5 nM, read-out: % displacement at 100 nM) worked out at 11%.

As usually defined, the ED50 is the midpoint of the dose-response relation. As a reminder, the Ki is a dissociation constant, usually derived from enzyme kinetics or from competition with a known ligand.

(Values after patent US5250542A, “Peripherally selective piperidine carboxylate opioid antagonists” (Eli Lilly and Company, priority 1992, dated 1993).)
